In patent US9732094B2, “Arylquinazolines” (Merck Patent GmbH, priority 2013, dated 2017):

Experiments:
DNA-PK = DNA-PK (Homo sapiens (Human), UniProt P78527); test: DNA-PK assay (biochemical), flashplate 33P-ATP kinase assay; conditions: biochemical DNA-PK assay
Procedure, shortened: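 Radiometric kinase reaction in streptavidin-coated flashplates, stopped with 200 mM EDTA, then 30 min room-temperature incubation and saline washes.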

Kv11.1 (hERG) = Kv11.1 (hERG) (Homo sapiens (Human), UniProt Q12809); test: Kv11.1 ion channel binding assay (Predictor hERG fluorescence polarisation); conditions: cells marked *: measured using hERG binding assay instead of hERG patch clamp assay; read-out: Ki [Kv1.11 hERG]
Kv11.1 (hERG), sequence (Q12809 whole entry): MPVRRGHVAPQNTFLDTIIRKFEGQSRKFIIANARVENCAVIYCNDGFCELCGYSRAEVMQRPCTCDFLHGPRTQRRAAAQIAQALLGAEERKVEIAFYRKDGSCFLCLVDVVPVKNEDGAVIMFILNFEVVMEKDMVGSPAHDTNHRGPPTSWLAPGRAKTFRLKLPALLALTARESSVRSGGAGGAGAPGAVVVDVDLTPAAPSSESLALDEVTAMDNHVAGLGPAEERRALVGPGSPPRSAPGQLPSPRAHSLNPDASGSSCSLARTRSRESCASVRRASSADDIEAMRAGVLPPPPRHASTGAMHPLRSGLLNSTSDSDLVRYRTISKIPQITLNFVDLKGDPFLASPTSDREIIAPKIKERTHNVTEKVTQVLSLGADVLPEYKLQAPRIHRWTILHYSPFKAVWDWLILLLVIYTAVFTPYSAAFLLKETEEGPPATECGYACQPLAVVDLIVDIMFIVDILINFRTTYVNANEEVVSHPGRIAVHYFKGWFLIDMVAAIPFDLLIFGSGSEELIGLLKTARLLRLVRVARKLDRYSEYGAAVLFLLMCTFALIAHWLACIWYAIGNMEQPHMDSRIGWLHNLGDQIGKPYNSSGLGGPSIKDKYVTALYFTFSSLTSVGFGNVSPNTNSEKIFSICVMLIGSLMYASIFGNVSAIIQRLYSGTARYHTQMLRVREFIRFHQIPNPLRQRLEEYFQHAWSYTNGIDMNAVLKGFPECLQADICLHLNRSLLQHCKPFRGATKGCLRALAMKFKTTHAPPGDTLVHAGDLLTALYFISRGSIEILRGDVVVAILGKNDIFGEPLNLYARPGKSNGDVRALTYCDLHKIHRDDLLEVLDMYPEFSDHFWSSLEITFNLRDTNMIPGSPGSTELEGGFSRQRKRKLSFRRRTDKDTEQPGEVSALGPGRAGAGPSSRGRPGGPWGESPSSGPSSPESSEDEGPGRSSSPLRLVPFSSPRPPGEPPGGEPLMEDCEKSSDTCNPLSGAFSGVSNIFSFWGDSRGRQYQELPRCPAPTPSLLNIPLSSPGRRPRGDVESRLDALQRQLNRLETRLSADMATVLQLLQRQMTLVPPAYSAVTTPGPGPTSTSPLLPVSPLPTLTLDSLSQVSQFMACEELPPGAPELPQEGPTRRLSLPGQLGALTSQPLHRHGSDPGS
Description: D) Kv11.1 Ion Channel Binding Assay
Kv11.1 (hERG=human ether a go-go related […]) is a cardiac K^+ channel which should if possible not interact with the test substances. This interaction is determined quantitatively with the aid of the Predictor™ hERG Fluorescence Polarizations (FP) Assays from Life Technologies. In the case of this assay principle, cardiomyocyte cell membranes having a certain proportion of Kv11.1 channels are isolated. A dye-labelled Kv11.1 binding partner gives a high fluorescence polarisation signal by interaction with the Kv11.1. In the case of displacement of the dye, a reduction in the fluorescence polarisation signal occurs.
The assay is carried out automatically as follows: 15 nl of the test substances (highest concentration: 10 mM, 10 concentrations: dilution factors 1:3.16, DMSO) are transferred into an empty microtitre plates having 384 wells by means of an acoustic pipetter. 3 μl of the isolated membranes are subsequently added. Membranes and test substances are incubated at 22° C. for 15 min (+/−5 min). In the next step, the dye-labelled binding partner is added, followed by incubation at 22° C. After incubation for two hours, the measurement of the fluorescence polarisation is carried out on an Envision multimode Reader. Measured raw data are standardised with the aid of Genedata Assay Analyzer. The 1050 and % effect values are calculated in Genedata Condoseo.

[1] = molecular target: DNA-PK phosphorylation at serine 2056 (Homo sapiens (Human), UniProt P78527); test: DNA-PK phosphorylation at serine 2056 (cellular), bleomycin-treated HCT116 cells, ELISA; type: cell-based; conditions: cellular DNA-PK phosphorylation at serine 2056, HCT116; read-out: IC50 pDNA-PK
Procedure, shortened: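 HCT116, MEM alpha + 10% FCS, 37 °C/10% CO2, seeded o/n. Cpd + 10 μM bleomycin, 6 h. ELISA, chemiluminescence; phospho/total DNA-PKcs ratio, DMSO = blank.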

Compound | IC50 (DNA-PK) [nM] | Ki (Kv11.1 (hERG)) [nM] | IC50 [1] [nM]
CNC(=O)C(c1ccc(F)c(-c2ncnc3cc(N4CCOCC4)ccc23)c1)c1ncccc1Cl (stereo not drawn) [Example 230, 2-(3-Chloro-pyridin-2-yl)-2-[4-fluoro-3-(7-morpholin-4-yl-quinazolin-4-yl)-phenyl]-N-methyl-acetamide] | 7 to 30 | 15000 to 25000 | 5000 to 10000
Fc1cc(Cl)c(Cc2ccc3nccn3n2)cc1-c1ncnc2cc(N3CCOCC3)ccc12 [Example 235, 4-(4-Chloro-2-fluoro-5-imidazo[1,2-b]-pyridazin-6-ylmethyl - phenyl)-7-morpholin-4-ylquinazoline] | < 3 | > 25000 | < 500
CNC(=O)C(c1ccc2nccn2n1)c1cc(-c2ncnc3cc(N4CCOCC4)ccc23)c(F)cc1Cl (stereo not drawn) [Example 236, 2-[2-Chloro-4-fluoro-5-(7-morpholin-4-yl-quinazolin-4-yl)-phenyl]-2-imidazo-[1,2-b]pyridazin-6-yl-N-methylacetamide] | > 30 | > 25000 | 5000 to 10000
Cc1nccnc1C(O)c1ccc(F)c(-c2ncnc3cc(N4CCOCC4)sc23)c1 (stereo not drawn) [Example 245, [4-Fluoro-3-(6-morpholin-4-yl-thieno[3,2-d}-pyrimidin-4-yl)-phenyl]-(3-methyl-pyrazin-2-yl)-methanol] | < 3 | > 25000 | < 500
Cc1nccnc1C(O)c1ccc(F)c(-c2ncnc3cc(N4CCOCC4)sc23)c1 (stereo not drawn) [Example 246, [4-Fluoro-3-(6-morpholin-4-yl-thieno[3,2-d}-pyrimidin-4-yl)-phenyl]-(3-methyl-pyrazin-2-yl)-methanol] | 3 to 7 | > 25000 | 500 to 5000
COc1nccnc1C(O)c1cc(-c2ncnc3cc(N4CCOCC4)cc(F)c23)c(F)cc1Cl (stereo not drawn) [Example 249, [2-Chloro-4-fluoro-5-(5-fluoro-7-morpholin-4-yl-quinazolin-4-yl)-phenyl]-(3-methoxy-pyrazin-2-yl)-methanol] | < 3 | > 25000 | < 500
Cc1nccnc1[C@@H](O)c1ccc(F)c(-c2ncnc3cc(N4CCOCC4)cc(F)c23)c1 [Example 251, (S)-[4-fluoro-3-(5-fluoro-7-morpholin-4-ylquinazolin-4-yl)-phenyl]-(3-methyl-pyrazin-2-yl)-methanol] | 3 to 7 | > 25000 | 500 to 5000
CNC(=O)C(c1cc(-c2ncnc3cc(N4CCOCC4)ccc23)c(F)cc1Cl)c1nccnc1C (stereo not drawn) [Example 254, 2-[2-Chloro-4-fluoro-5-(7-morpholin-4-yl-quinazolin-4-yl)-phenyl]-N-methyl-2-(3-methyl-pyrazin-2-yl)acetamide] | 7 to 30 | > 25000 | 10000 to 30000
COc1ccc(C(O)c2ccc(F)c(-c3ncnc4cc(N5CCOCC5)cc(F)c34)c2)nn1 (stereo not drawn) [Example 255, [4-Fluoro-3-(5-fluoro-7-morpholin-4-yl-quinazolin-4-yl)-phenyl]-(6-methoxy-pyridazin-3-yl)-methanol] | 7 to 30 | > 25000 | < 500
COc1ccc(C(O)c2ccc(F)c(-c3ncnc4cc(N5CCOCC5)cc(F)c34)c2)nn1 (stereo not drawn) [Example 256, [4-Fluoro-3-(5-fluoro-7-morpholin-4-yl-quinazolin-4-yl)-phenyl]-(6-methoxy-pyridazin-3-yl)-methanol] | < 3 | > 25000 | < 500
[2H]C1([2H])OC([2H])([2H])C([2H])([2H])N(c2ccc3c(-c4cc(C(O)c5nccnc5OC)c(Cl)cc4F)ncnc3c2)C1([2H])[2H] (stereo not drawn) [Example 258, [2-Chloro-4-fluoro-5-[7-(2,2,3,3,5,5,6,6-octadeutenomorpholin-4-yl)quinazolin-4-yl]phenyl]-(3-methoxypyrazin-2-yl)methanol] | 3 to 7 | > 25000 | < 500
[2H]C1([2H])OC([2H])([2H])C([2H])([2H])N(c2ccc3c(-c4cc(C(O)c5nccnc5C)ccc4F)ncnc3c2)C1([2H])[2H] (stereo not drawn) [Example 259, [4-Fluoro-3-[7-(2.2,3,3,5,5,6,6-octadeuteriomorpholin-4-yl)quinazolin-4-yl]phenyl]-(3-methyl-pyrazin-2-yl)-methanol] | < 3 | > 25000 | < 500
Cc1nccnc1C(O)c1cc(-c2ncnc3cc(N4CCOCC4)sc23)c(F)cc1Cl (stereo not drawn) [Example 264, [2-Chloro-4-fluoro-5-(6-morpholin-4-yl-thieno[3,2-d}-pyrimidin-4-yl)-phenyl]-(3-methyl-pyrazin-2-yl)-methanol] | < 3 | > 25000 | < 500
Cc1nccnc1C(O)c1ccc(F)c(-c2ncnc3cc(N4CCOCC4)sc23)c1 (stereo not drawn) [Example 265, [4-Fluoro-3-(6-morpholin-4-yl-thieno[3,2-d}-pyrimidin-4-yl)-phenyl]-(3-methyl-pyrazin-2-yl)-methanol] | < 3 | > 25000 | < 500
COc1nccnc1C(O)c1ccc(F)c(-c2ncnc3cc(N4CCOCC4)cc(F)c23)c1 (stereo not drawn) [Example 267, [4-Fluoro-3-(5-fluoro-7-morpholin-4-yl-quinazolin-4-yl)-phenyl]-(3-methoxy-pytazin-2-yl)-methanol] | < 3 | > 25000 | < 500
Cc1nccnc1C(O)c1ccc(F)c(-c2ncnc3cc(N4CCOCC4)cc(F)c23)c1 (stereo not drawn) [Example 268, [4-Fluoro-3-(5-fluoro-7-morpholin-4-ylquinazolin-4-yl)phenyl]-(3-methylpyrazin-2-yl)methanol] | < 3 | > 25000 | < 500
Cc1nccnc1C(C(N)=O)c1cc(-c2ncnc3cc(N4CCOCC4)sc23)c(F)cc1Cl (stereo not drawn) [Example 269, 2-[2-Chloro-4-fluoro-5-(6-morpholin-4-yl-thieno[3,2-d}-pyrimidin-4-yl)-phenyl]-2-(3-methyl-pyrazin-2-yl)-acetamide] | 3 to 7 | > 25000 | 500 to 5000
Cc1nccnc1C(C(N)=O)c1ccc(F)c(-c2ncnc3cc(N4CCOCC4)sc23)c1 (stereo not drawn) [Example 270, 2-[4-Fluoro-3-(6-morpholin-4-yl-thieno[3,2-d}-pyrimidin-4-yl)-phenyl]-2-(3-methyl-pyrazin-2-yl)-acetamide] | 3 to 7 | > 25000 | 5000 to 10000
COc1ccc(C(C(N)=O)c2cc(-c3ncnc4cc(N5CCOCC5)sc34)c(F)cc2Cl)nn1 (stereo not drawn) [Example 272, 2-[2-Chloro-4-fluoro-5-(6-morpholin-4-yl-thieno[3,2-d}-pyrimidin-4-yl)-phenyl]-2-(6-methoxy-pyridazin-3-yl)acetamide] | 3 to 7 | > 25000 | 500 to 5000
COc1ccc(C(O)c2cc(-c3ncnc4cc(N5CCOCC5)cc(F)c34)c(F)cc2Cl)nn1 (stereo not drawn) [Example 278, [2-chloro-4-fluoro-5-(5-fluoro-7-morpholin-4-ylquinazolin-4-yl)phenyl]-(6-methoxypyridazin-3-yl)methanol] | < 3 | > 25000 | < 500
OC(c1ccc(F)c(-c2ncnc3cc(N4CCOCC4)ccc23)c1)c1nccn2ncnc12 (stereo not drawn) [Example 279, [4-Fluoro-3-(7-morpholin-4-yl-quinazolin-4-yl)-phenyl]-[1,2,4]-triazolo[1,5-a]-pyrazin-8-ylmethanol] | 3 to 7 | > 25000 | 5000 to 10000
NC(=O)C(c1ccc(F)c(-c2ncnc3cc(N4CCOCC4)ccc23)c1)c1nccn2ncnc12 (stereo not drawn) [Example 280, 2-[4-Fluoro-3-(7-morpholin-4-yl-quinazolin-4-yl)-phenyl]-2-[1,2,4]-triazolo[1,5-a]-pyrazin-8-yl-acetamide] | 7 to 30 | > 25000 | 10000 to 30000
COc1ccc(C(O)c2ccc(F)c(-c3ncnc4cc(N5CCOCC5)c(F)cc34)c2)nn1 (stereo not drawn) [Example 282, [4-Fluoro-3-(6-fluoro-7-morpholin-4-yl-quinazolin-4-yl)-phenyl]-(6-methoxy-pyridazin-3-yl)-methanol] | > 30 | > 25000 | 10000 to 30000
NC(=O)C(c1ccc(F)c(-c2ncnc3cc(N4CCOCC4)ccc23)c1)c1nncc2ccsc12 (stereo not drawn) [Example 284, 2-[4-Fluoro-3-(7-morpholin-4-yl-quinazolin-4-yl)-phenyl]-2-thieno-[2,3-d}pyridazin-7-yl-acetamide] | 3 to 7 | > 25000 | 10000 to 30000
COc1nnc(Cl)cc1C(O)c1ccc(F)c(-c2ncnc3cc(N4CCOCC4)ccc23)c1 (stereo not drawn) [Example 286, (6-Chloro-3-methoxy-pyridazin-4-yl)-[4-fluoro-3-(7-morpholin-4-yl-quinazolin-4-yl)-phenyl]methanol] | 7 to 30 | > 25000 | 5000 to 10000
